Measurements reported in publication PMC11200585, “Prospects for Prostate Cancer Chemotherapy: Cytotoxic Evaluation and Mechanistic Insights of Quinolinequinones with ADME/PK Profile” (Biomedicines, 2024).

What was measured:
Type in all cases: cell-based, human
[1] = test system: MOLT-4; experiment: NCI-60 one-dose screen (leukemia); settings: 10 µM single dose; for GP (growth percentage): 48 h
Experimental: (§1) The obtained quinolinequinones were submitted to NCI, Bethesda, USA, and, as per standard protocol of NCI, all compounds were evaluated for their antiproliferative activity at single-dose assay (10 µM concentration in DMSO) on a panel of 60 cancer cell lines derived from leukemia, non-small-cell lung, colon, CNS, melanoma, ovarian, renal, prostate, and breast, as per protocol. Tested compounds were added to the microtiter culture plates followed by incubation for 48 h at 37 °C. Sulforhodamine B (SRB), a protein-binding dye, is used for endpoint determination. The percent of the growth of the treated cells was determined in comparison to the untreated control cells and the results of each tested compound were reported. Data from one-dose experiments pertain to the percentage growth at 10 μM [16, 17, 18].

[2] = test system: MDA-MB-468; experiment: NCI-60 five-dose assay (breast cancer); settings: 48 h, SRB; for GI50 / LC50: Homo sapiens
[3] = test system: UACC-62; experiment: NCI-60 five-dose assay (melanoma); settings: 48 h, SRB; for GI50 / LC50 (concentration killing 50% of cells): Homo sapiens
[4] = test system: PC-3; experiment: NCI-60 five-dose assay (prostate cancer); settings: 48 h, SRB; for GI50 / CC50: Homo sapiens; for CC50: read-out: LC50 (the source's name)
[5] = test system: LOX IMVI; experiment: NCI-60 five-dose assay (melanoma); settings: 48 h, SRB; for GI50 / LC50 (concentration killing 50% of cells): Homo sapiens
[6] = test system: MALME-3M; experiment: NCI-60 five-dose assay (melanoma); settings: 48 h, SRB; for GI50 / LC50: Homo sapiens
[7] = test system: NCI-H460; experiment: NCI-60 five-dose assay (non-small cell lung cancer); settings: 48 h, SRB; for GI50 / CC50: Homo sapiens; for CC50: read-out: LC50 (the source's name)
[8] = test system: HOP-92; experiment: as above; settings: 48 h, SRB; for GI50 / LC50 (50% lethal concentration): Homo sapiens
[9] = test system: 786-0; experiment: NCI-60 five-dose assay (renal cancer); settings: 48 h, SRB; for GI50 / LC50: Homo sapiens
[10] = test system: IGROV1; experiment: NCI-60 five-dose assay (ovarian cancer); settings: SRB; for TGI: 48 h; for GI50 / LC50: Homo sapiens, IGROV-1, 48 h
[11] = test system: SF-539; experiment: NCI-60 five-dose assay (CNS cancer); settings: 48 h, SRB; for GI50 / LC50: Homo sapiens
[12] = test system: DU-145; experiment: NCI-60 five-dose assay (prostate cancer); settings: 48 h, SRB; for GI50 / CC50: Homo sapiens; for CC50: read-out: LC50 (the source's name)
[13] = test system: ACHN; experiment: NCI-60 five-dose assay (renal cancer); settings: 48 h, SRB; for GI50 / LC50: Homo sapiens
[14] = test system: OVCAR-8; experiment: NCI-60 five-dose assay (ovarian cancer); settings: 48 h, SRB; for GI50 / CC50: Homo sapiens; for CC50: read-out: LC50 (the source's name)
[15] = test system: PC-3; experiment: NCI-60 one-dose screen (prostate cancer); settings: 10 µM single dose; for GP (growth percentage): 48 h; for inhibition at 10 µM: Homo sapiens
Experimental: as §1

[16] = test system: DU-145; experiment: NCI-60 one-dose screen (prostate cancer); settings: 10 µM single dose, 48 h
Experimental: as §1

[17] = test system: IGROV1; experiment: NCI-60 one-dose screen (ovarian cancer); settings: 10 µM single dose, 48 h
Experimental: as §1

[18] = test system: OVCAR-8; experiment: NCI-60 one-dose screen (ovarian cancer); settings: 10 µM single dose; for GP (growth percentage): 48 h
Experimental: as §1

[19] = test system: OVCAR-4; experiment: NCI-60 one-dose screen (ovarian cancer); settings: 10 µM single dose, 48 h
Experimental: as §1

[20] = test system: NCI/ADR-RES; experiment: NCI-60 one-dose screen (ovarian cancer); settings: 10 µM single dose, 48 h
Experimental: as §1

[21] = test system: OVCAR-5; experiment: NCI-60 one-dose screen (ovarian cancer); settings: 10 µM single dose; for GP (growth percentage): 48 h
Experimental: as §1

[22] = test system: SK-OV-3; experiment: NCI-60 one-dose screen (ovarian cancer); settings: 10 µM single dose, 48 h
Experimental: as §1

[23] = test system: NCI/ADR-RES; experiment: NCI-60 five-dose assay (ovarian cancer); settings: 48 h, SRB; for GI50 / CC50: Homo sapiens; for CC50: read-out: LC50 (the source's name)
[24] = test system: U251; experiment: NCI-60 one-dose screen (CNS cancer); settings: 10 µM single dose, 48 h
Experimental: as §1

[25] = test system: SF-539; experiment: NCI-60 one-dose screen (CNS cancer); settings: 10 µM single dose, 48 h
Experimental: as §1

[26] = test system: SNB-75; experiment: NCI-60 one-dose screen (CNS cancer); settings: 10 µM single dose, 48 h
Experimental: as §1

[27] = test system: SF-295; experiment: NCI-60 one-dose screen (CNS cancer); settings: 10 µM single dose, 48 h
Experimental: as §1

[28] = test system: SF-268; experiment: NCI-60 one-dose screen (CNS cancer); settings: 10 µM single dose, 48 h
Experimental: as §1

[29] = test system: SNB-19; experiment: NCI-60 one-dose screen (CNS cancer); settings: 10 µM single dose, 48 h
Experimental: as §1

[30] = test system: HCT-116; experiment: NCI-60 five-dose assay (colon cancer); settings: 48 h, SRB; for GI50 / LC50: Homo sapiens
[31] = test system: TK-10; experiment: NCI-60 one-dose screen (renal cancer); settings: 10 µM single dose, 48 h
Experimental: as §1

[32] = test system: SN12C; experiment: NCI-60 one-dose screen (renal cancer); settings: 10 µM single dose, 48 h
Experimental: as §1

[33] = test system: A498; experiment: NCI-60 one-dose screen (renal cancer); settings: 10 µM single dose, 48 h
Experimental: as §1

[34] = test system: ACHN; experiment: NCI-60 one-dose screen (renal cancer); settings: 10 µM single dose, 48 h
Experimental: as §1

[35] = test system: UO-31; experiment: NCI-60 one-dose screen (renal cancer); settings: 10 µM single dose, 48 h
Experimental: as §1

[36] = test system: 786-0; experiment: NCI-60 one-dose screen (renal cancer); settings: 10 µM single dose, 48 h
Experimental: as §1

[37] = test system: HS 578T; experiment: NCI-60 five-dose assay (breast cancer); settings: 48 h, SRB; for GI50 / CC50: Homo sapiens; for CC50: read-out: LC50 (the source's name)
[38] = test system: OVCAR-3; experiment: NCI-60 five-dose assay (ovarian cancer); settings: 48 h, SRB

COc1cc(NC2=C(Cl)C(=O)c3nc(C)ccc3C2=O)cc(OC)c1 [AQQ5]
GP (growth percentage) [1]: 8.29% | inhibition at 10 µM ([1]; Homo sapiens): 91.7% | TGI [2]: 2.57 µM | GI50 [2]: 1.23 µM | LC50 [2]: 5.37 µM | TGI [3]: 3.42 µM | GI50 [3]: 1.77 µM | LC50 (concentration killing 50% of cells) [3]: 6.6 µM | TGI [4]: 10.4 µM | GI50 [4]: 2.56 µM | CC50 [4]: 43.6 µM | TGI [5]: 2.32 µM | GI50 [5]: 1.1 µM | LC50 (concentration killing 50% of cells) [5]: 4.88 µM | TGI [6]: 3.28 µM | GI50 [6]: 1.76 µM | LC50 [6]: 6.11 µM | TGI [7]: 8.07 µM | GI50 [7]: 2.68 µM | CC50 [7]: 82.6 µM | TGI [8]: 3.17 µM | GI50 [8]: 1.73 µM | LC50 (50% lethal concentration) [8]: 5.83 µM | TGI [9]: 2.88 µM | GI50 [9]: 1.52 µM | LC50 [9]: 5.44 µM | TGI [10]: 3.55 µM | GI50 [10]: 1.73 µM | LC50 [10]: 7.26 µM | TGI [11]: 3.22 µM | GI50 [11]: 1.79 µM | LC50 [11]: 5.78 µM | TGI [12]: 3.55 µM | GI50 [12]: 1.84 µM | CC50 [12]: 6.83 µM | TGI [13]: 3.04 µM | GI50 [13]: 1.67 µM | LC50 [13]: 5.51 µM | TGI [14]: 3.28 µM | GI50 [14]: 1.64 µM | CC50 [14]: 6.56 µM | GP (growth percentage) [15]: 27.99% | inhibition at 10 µM [15]: 72% | GP (growth percentage) [16]: −92.99% | GP (growth percentage) [17]: −23.13% | GP (growth percentage) [18]: −0.82% | GP (growth percentage) [19]: −93.28% | GP (growth percentage) [20]: −1.26% | GP (growth percentage) [21]: 22.00% | inhibition at 10 µM ([21]; Homo sapiens): 78% | GP (growth percentage) [22]: 93.82% | TGI [23]: 4.47 µM | GI50 [23]: 1.81 µM | CC50 [23]: 21.7 µM | GP (growth percentage) [24]: 36.76% | GP (growth percentage) [25]: −30.92% | GP (growth percentage) [26]: −4.09% | GP (growth percentage) [27]: 51.57% | GP (growth percentage) [28]: 37.00% | GP (growth percentage) [29]: 30.42% | TGI [30]: 2.88 µM | GI50 [30]: 1.53 µM | LC50 [30]: 5.45 µM | GP (growth percentage) [31]: −50.07% | GP (growth percentage) [32]: −63.27% | GP (growth percentage) [33]: 71.10% | GP (growth percentage) [34]: −99.62% | GP (growth percentage) [35]: −94.65% | GP (growth percentage) [36]: −59.47% | TGI [37]: 5.78 µM | GI50 [37]: 2.43 µM | CC50 [37]: > 100 µM

CCOc1ccccc1NC1=C(Cl)C(=O)c2nc(C)ccc2C1=O [AQQ2]
GP (growth percentage) [1]: −24.89% | TGI [2]: 2.88 µM | GI50 [2]: 1.45 µM | LC50 [2]: 5.71 µM | TGI [3]: 3.36 µM | GI50 [3]: 1.8 µM | LC50 (concentration killing 50% of cells) [3]: 6.28 µM | TGI [4]: 2.77 µM | GI50 [4]: 1.26 µM | CC50 [4]: 6.11 µM | TGI [5]: 2.22 µM | GI50 [5]: 0.839 µM | LC50 (concentration killing 50% of cells) [5]: 5.33 µM | TGI [6]: 2.77 µM | GI50 [6]: 1.36 µM | LC50 [6]: 5.64 µM | TGI [7]: 11.4 µM | GI50 [7]: 3.02 µM | CC50 [7]: 45.4 µM | TGI [8]: 3.33 µM | GI50 [8]: 1.8 µM | LC50 (50% lethal concentration) [8]: 6.13 µM | TGI [9]: 3.25 µM | GI50 [9]: 1.8 µM | LC50 [9]: 5.86 µM | TGI [10]: 2.82 µM | GI50 [10]: 1.37 µM | LC50 [10]: 5.84 µM | TGI [38]: 2.03 µM | GI50 ([38]; Homo sapiens): 0.759 µM | CC50 ([38]; Homo sapiens, read-out: LC50 (the source's name)): 4.54 µM | TGI [11]: 3.09 µM | GI50 [11]: 1.67 µM | LC50 [11]: 5.71 µM | TGI [12]: 2.99 µM | GI50 [12]: 1.63 µM | CC50 [12]: 5.49 µM | TGI [13]: 2.69 µM | GI50 [13]: 1.35 µM | LC50 [13]: 5.35 µM | TGI [14]: 2.92 µM | GI50 [14]: 1.49 µM | CC50 [14]: 5.7 µM | GP (growth percentage) [15]: 4.34% | inhibition at 10 µM [15]: 95.7% | GP (growth percentage) [16]: −85.02% | GP (growth percentage) [17]: −57.52% | GP (growth percentage) [18]: 0.93% | inhibition at 10 µM ([18]; Homo sapiens): 99.1% | GP (growth percentage) [19]: −91.97% | GP (growth percentage) [20]: −9.58% | GP (growth percentage) [21]: 40.78% | GP (growth percentage) [22]: 85.34% | TGI [23]: 5.09 µM | GI50 [23]: 1.89 µM | CC50 [23]: > 100 µM | GP (growth percentage) [24]: 37.89% | GP (growth percentage) [25]: −37.33% | GP (growth percentage) [26]: 101.38% | GP (growth percentage) [27]: 90.72% | GP (growth percentage) [28]: 32.75% | GP (growth percentage) [29]: 46.47% | TGI [30]: 2.31 µM | GI50 [30]: 1.05 µM | LC50 [30]: 5.05 µM | GP (growth percentage) [31]: 124.08% | GP (growth percentage) [32]: −50.97% | GP (growth percentage) [33]: 78.84% | GP (growth percentage) [34]: −99.15% | GP (growth percentage) [35]: −92.96% | GP (growth percentage) [36]: −88.18% | TGI [37]: 5.25 µM | GI50 [37]: 2.11 µM | CC50 [37]: > 100 µM
